Data taken from PubChem BioAssay (NCI).
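Exposure lasted 48 hours, with cells grown in 96-well plates and compounds tested at five concentrations. Definition used: TGI = concentration required for complete inhibition of growth.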

Tests used:
Assay in all cases: NCI-60 cell line screen, 48 h
IGROV1 ovarian = system: IGROV1 ovarian
COLO 205 colon = system: COLO 205 colon
OVCAR-4 ovarian = system: OVCAR-4 ovarian
NCI-H522 lung = system: NCI-H522 lung
UACC-257 melanoma = system: UACC-257 melanoma
SK-MEL-28 melanoma = system: SK-MEL-28 melanoma
MDA-MB-435 = system: MDA-MB-435
HS 578T breast = system: HS 578T breast
NCI-H460 lung = system: NCI-H460 lung
A498 renal = system: A498 renal
MCF7 breast = system: MCF7 breast
OVCAR-5 ovarian = system: OVCAR-5 ovarian
SF-295 CNS = system: SF-295 CNS
MALME-3M melanoma = system: MALME-3M melanoma
SK-MEL-5 melanoma = system: SK-MEL-5 melanoma
UO-31 renal = system: UO-31 renal
HCT-116 colon = system: HCT-116 colon
K-562 leukemia = system: K-562 leukemia
SK-MEL-2 melanoma = system: SK-MEL-2 melanoma
KM12 colon = system: KM12 colon
SW-620 colon = system: SW-620 colon
TK-10 renal = system: TK-10 renal
SF-539 CNS = system: SF-539 CNS
CAKI-1 renal = system: CAKI-1 renal
786-0 renal = system: 786-0 renal
DU-145 prostate = system: DU-145 prostate
CCRF-CEM leukemia = system: CCRF-CEM leukemia
RPMI-8226 leukemia = system: RPMI-8226 leukemia
OVCAR-8 ovarian = system: OVCAR-8 ovarian
HOP-62 NSCLC = system: HOP-62 NSCLC
MDA-MB-231 breast = system: MDA-MB-231 breast
RXF 393 renal = system: RXF 393 renal
U251 CNS = system: U251 CNS
PC-3 prostate = system: PC-3 prostate
HCT-15 colon = system: HCT-15 colon
ACHN renal = system: ACHN renal
T-47D breast = system: T-47D breast
M14 melanoma = system: M14 melanoma
SN12C renal = system: SN12C renal
NCI-H23 lung = system: NCI-H23 lung
SNB-75 CNS = system: SNB-75 CNS
LOX IMVI melanoma = system: LOX IMVI melanoma
SF-268 CNS = system: SF-268 CNS
HT29 colon = system: HT29 colon
MOLT-4 leukemia = system: MOLT-4 leukemia
OVCAR-3 ovarian = system: OVCAR-3 ovarian
NCI-H226 lung = system: NCI-H226 lung
A549 NSCLC = system: A549 NSCLC
SR leukemia = system: SR leukemia
EKVX NSCLC = system: EKVX NSCLC
UACC-62 melanoma = system: UACC-62 melanoma

SMILES: O=[N+]([O-])c1cc(Cl)c(Cl)cc1[N+](=O)[O-]
- TGI (IGROV1 ovarian): 3.44 µM
- TGI (COLO 205 colon): 26.5 µM
- TGI (OVCAR-4 ovarian): 4.63 µM
- TGI (NCI-H522 lung): 3.36 µM
- TGI (UACC-257 melanoma): 4.1 µM
- TGI (SK-MEL-28 melanoma): 6.04 µM
- TGI (MDA-MB-435): 12.8 µM
- TGI (HS 578T breast): 72.3 µM
- TGI (NCI-H460 lung): 12.3 µM
- TGI (A498 renal): 33 µM
- TGI (MCF7 breast): 4.85 µM
- TGI (OVCAR-5 ovarian): 5.21 µM
- TGI (SF-295 CNS): 5.23 µM
- TGI (MALME-3M melanoma): 5.83 µM
- TGI (SK-MEL-5 melanoma): 29.2 µM
- TGI (UO-31 renal): 3.62 µM
- TGI (HCT-116 colon): > 100 µM
- TGI (K-562 leukemia): 5.81 µM
- TGI (SK-MEL-2 melanoma): 4.74 µM
- TGI (KM12 colon): 13 µM
- TGI (SW-620 colon): 7.73 µM
- TGI (TK-10 renal): 12.3 µM
- TGI (SF-539 CNS): 4.68 µM
- TGI (CAKI-1 renal): 4.28 µM
- TGI (786-0 renal): 6.36 µM
- TGI (DU-145 prostate): 4.42 µM
- TGI (CCRF-CEM leukemia): > 100 µM
- TGI (RPMI-8226 leukemia): 15.2 µM
- TGI (OVCAR-8 ovarian): 5.99 µM
- TGI (HOP-62 NSCLC): 6.49 µM
- TGI (MDA-MB-231 breast): 4.38 µM
- TGI (RXF 393 renal): 3.48 µM
- TGI (U251 CNS): 3.82 µM
- TGI (PC-3 prostate): 3.94 µM
- TGI (HCT-15 colon): 7.77 µM
- TGI (ACHN renal): 6.51 µM
- TGI (T-47D breast): 6.63 µM
- TGI (M14 melanoma): 8.8 µM
- TGI (SN12C renal): 3.52 µM
- TGI (NCI-H23 lung): 4.83 µM
- TGI (SNB-75 CNS): 9.32 µM
- TGI (LOX IMVI melanoma): 4.74 µM
- TGI (SF-268 CNS): 3.66 µM
- TGI (HT29 colon): 26.9 µM
- TGI (MOLT-4 leukemia): 0.797 µM
- TGI (OVCAR-3 ovarian): 3.22 µM
- TGI (NCI-H226 lung): 11 µM
- TGI (A549 NSCLC): 4.97 µM
- TGI (SR leukemia): 4.98 µM
- TGI (EKVX NSCLC): 8.81 µM
- TGI (UACC-62 melanoma): 4.42 µM
